Test results: patent publication US20210369693A1, “METHODS AND PHARMACEUTICAL COMPOSITIONS FOR THE TREATMENT OF NON-ALCOHOLIC STEATOHEPATITIS” (Eiger Biopharmaceuticals, Inc., priority 2017, published 2021)
In brackets after ≈: the same amount, converted by molar mass.

Columns and labels:
advanced NASH = details: after a year of treatment; cited from earlier work
[1] = cited from earlier work
animal model of NASH = experiment: Animal model of NASH (hypothesized); type: in vivo
Description: Accordingly, in one aspect, methods of treating one or more symptoms of NAFLD and/or NASH, such as hepatocyte ballooning, steatosis, and lobular inflammation, are provided. […] Thus, in some embodiments, administration of pirfenidone as described herein is hypothesized to decrease ballooning and measurably lower plasma and/or liver CK-18 levels in as few as 3 to 12 weeks after treatment initiation. In some embodiments, it is hypothesized that continued daily administration of pirfenidone is efficacious in decreasing inflammation and fibrosis in NASH within 2 to 72 weeks after treatment initiation. In some embodiments, it is hypothesized that treatment with pirfenidone results in an improvement in one or more parameters such as improved ALT enzyme levels, decreased inflammation, decreased steatosis, reduced severity of NASH symptoms, reduced levels of NASH biomarkers such as CK-18, or the slowing, stopping, or reversing of liver fibrosis.

## CCCCOCCOc1ccc(-c2ccc3c(c2)/C=C(/C(=O)Nc2ccc([S@@+]([O-])Cc4cncn4CCC)cc2)CCCN3CC(C)C)cc1 [cenicriviroc]
Advanced NASH
  primary endpoint of improving inflammation and liver damage: failed to meet its primary endpoint

## Cc1ccc(=O)n(-c2ccccc2)c1 [pirfenidone, 5-methyl-1-phenyl-2-1-(H)-pyridone]
[1]; methanol, ethyl alcohol, acetone, chloroform vs water and 1.0 N HCl
  relative solubility in solvents: more soluble in methanol, ethyl alcohol, acetone and chloroform than in water and 1.0 N HCl
Animal model of NASH; animal model of NASH
  hepatocyte ballooning: demonstrates efficacy in slowing and preventing hepatocyte ballooning
  lobular inflammation: reduces
  steatosis: reduces steatosis
Animal model of NASH; relative to control animals
  plasma CK-18 levels: decline significantly

## CC(C)C[C@H](NC(=O)[C@@H](O)[C@H](N)Cc1ccccc1)C(=O)O [Ubenimex, (2S)-2-[[(2S,3R)-3-amino-2-hydroxy-4-phenylbutanoyl]amino]-4-methylpentanoic acid]
[1]; water
  solubility in water: 1270 µg/mL (≈ 4.12 mM)
